Reference: patent publication US11246907B2, “Immunosuppressive agents and their use in therapy” (Norwegian University of Science and Technology, priority 2013, dated 2022)
Ends that are not written are not given here.

Legend:
[1] = system: p70 S6 kinase Thr389 phosphorylation; experiment: Western blot of p70 S6 kinase Thr389 phosphorylation in JJN-3 cells; format: cell-based; conditions: 6 μM ATX-101, 4, 8, 24 h
PACT = experiment: Western blot of PACT protein levels in HaCaT cells; format: cell-based, human; conditions: 12 μM ATX-101 + 2 μg/ml polyIC, 4 h
Experimental: (§1) Protein levels were corrected for loading differences (β-tubulin) and normalized to untreated control cells. […] Bar, 5 μm.
(§2) The multiple myeloma cell lines JJN-3 (gift from J. Ball, University of Birmingham, United Kingdom) were grown in RPMI 1640 (Sigma-Aldrich, Schnelldorf, Germany) supplemented with 10% FCS, 2 mM glutamine (Sigma-Aldrich), 2.5 μg/ml amphotericin B (Sigma-Aldrich) and 100 μg/ml gentamicin (Invitrogen, Carlsbad, Calif., USA). HaCaT cells (spontaneously transformed keratinocytes) were cultured in DMEM (Sigma-Aldrich) containing FCS, glutamine, amphotericin B, and gentamicin. All cells were cultured at 37° C. in a humidified atmosphere of 5% CO2.
(§3) Mononucleated cells were seeded and stimulated as described above. JJN-3 cells were treated with ATX-101 (6 μM) for 4 h. HaCaT cells were treated with ATX-101 (12 μM), polylC (2 μg/ml), and LPS (100 ng/ml) for 4 h. […] The proteins were visualized with the Odyssey infrared imaging system (LI-COR) and quantified using Odyssey Image Studio V2. […]

PCNA = PCNA (Homo sapiens, UniProt P12004); experiment: Microscale thermophoresis (MST) of peptide interaction with PCNA; format: binding
Chain of PCNA (P12004 whole entry): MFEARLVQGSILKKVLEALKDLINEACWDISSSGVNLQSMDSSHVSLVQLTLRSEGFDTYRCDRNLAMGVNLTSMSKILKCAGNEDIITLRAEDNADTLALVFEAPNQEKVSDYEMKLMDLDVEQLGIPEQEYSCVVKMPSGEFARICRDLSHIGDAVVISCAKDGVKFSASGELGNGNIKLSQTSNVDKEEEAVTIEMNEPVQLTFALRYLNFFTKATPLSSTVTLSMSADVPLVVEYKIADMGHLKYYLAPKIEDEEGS
Experimental: Microscale thermophoresis (MST) was used to determine the dissociation constant for various APIM containing peptides.
PCNA was labeled with a fluorescent molecule. The concentration of PCNA was kept constant, whereas dilutions of each APIM containing peptide were prepared (1:1).

IFN-β = IFN-β ELISA on supernatants of stimulated monocytes; format: cell-based, human; conditions: LPS- and polyIC-stimulated monocytes; 4 μM (donor 1: 6 μM), 4 h
Experimental: Measured cytokine levels were normalized to cytokine levels from monocytes stimulated with TLR ligand alone. A two fold or higher increase in cytokine level after TLR stimulation was defined as cytokine induction. […] Isolated monocytes were stimulated with 10 ng/ml LPS and 40 μg/ml polyIC alone and in combination with 4 μM ATX-101 for 4 h. […] DRAQS was used for nuclear staining. Bar, 5 μm.
Peripheral blood mononuclear cells were isolated from A+ buffy coats (Blood Bank, St. Olav's University Hospital, Trondheim, Norway) by density gradient centrifugation (Lymphoprep; Axis-Shield PoC, Oslo, Norway). Mononucleated cells were seeded at 4 million cells/ml in serum-free RPMI 1640 supplemented with glutamine and gentamicin. […]
Monocytes were stimulated as described above. IFN-β was measured in supernatants with the VeriKine-HSTMHuman IFN-β Serum ELISA kit (Pestka Biomedical Laboratories, Piscataway, N.J., USA) according to the manufacturer's instructions with the following adaptions: the amount of supernatant was doubled from 50 to 100 μl; sample buffer was reduced from 50 to 25 μl; and antibody solution was reduced from 50 to 25 μl (reducing assay diluent, keeping same volume of antibody concentrate and diluent additive). The OD was measured at 450 nm.

[2] = system: Akt Ser473 phosphorylation; experiment: Western blot of Akt Ser473 phosphorylation in HaCaT cells; format: cell-based, human; conditions: 12 μM, 4 h; unstimulated and 2 μg/ml polyIC
Experimental: as §1, §2, §3

Substance: Ac-MDRWLVKWKKKRKIRRRRRRRRRRR [ATX-101]
- phosphorylation of p70 S6 kinase [1]: decreased
- PACT protein level, polyIC-stimulated HaCaT cells (PACT): further reduced the protein level of PACT
- interaction with PCNA by MST (in words) (PCNA): stronger interactions with PCNA than ATX-A
- IFN-β secretion (IFN-β): decreased the IFN-β secretion
- Akt phosphorylation in HaCaT cells [2]: reduced Akt phosphorylation in unstimulated and stimulated cells
